Holding throughout (assay type): functional
The subject of one assay is Pseudomonas aeruginosa. Description: Antibacterial activity against Pseudomonas aeruginosa QDIO-2 assessed as reduction in microbial growth after 24 hrs by serial dilution method.
The test system of the next assay is Vibrio anguillarum. In words: Antibacterial activity against Vibrio anguillarum QDIO-9 assessed as reduction in microbial growth after 24 hrs by serial dilution method.
Another assay relates to Vibrio vulnificus. In words: Antibacterial activity against Vibrio vulnificus QDIO-4 assessed as reduction in microbial growth after 24 hrs by serial dilution method.
The next assay relates to Vibrio alginolyticus. Description: Antibacterial activity against Vibrio alginolyticus QDIO-7 assessed as reduction in microbial growth after 24 hrs by serial dilution method.
The next assay concerns Aeromonas hydrophila. In words: Antibacterial activity against Aeromonas hydrophila QDIO-10 assessed as reduction in microbial growth after 24 hrs by serial dilution method.
Another assay deals with Vibrio parahaemolyticus. Description: Antibacterial activity against Vibrio parahaemolyticus QDIO-5 assessed as reduction in microbial growth after 24 hrs by serial dilution method.
The next assay relates to Escherichia coli. Description: Antibacterial activity against Escherichia coli QDIO-1 assessed as reduction in microbial growth after 24 hrs by serial dilution method.
In a further assay the test system is Edwardsiella tarda. In words: Antibacterial activity against Edwardsiella tarda QDIO-8 assessed as reduction in microbial growth after 24 hrs by serial dilution method.

Bounds are passed on as bounds.

In the case of `O=C(N[C@H](CO)[C@H](O)c1ccc([N+](=O)[O-])cc1)C(Cl)Cl` [CHLORAMPHENICOL], the MIC with Pseudomonas aeruginosa was 1 µg/mL; in the assay with Vibrio anguillarum, 0.5 µg/mL; with Vibrio vulnificus it was 0.5 µg/mL; in the assay on Vibrio alginolyticus it was 0.5 µg/mL; in the assay on Aeromonas hydrophila, 1 µg/mL; with Vibrio parahaemolyticus, 1 µg/mL. Besides, the MIC in the assay on Escherichia coli turned out to be 1 µg/mL; with Edwardsiella tarda, 0.5 µg/mL.
As to `CO[C@]12C[C@@](C)(O)[C@H]3C[C@@]4(C)CC[C@H]([C@@H](C)/C=C\C=C(C)C)[C@@H]4C/C=C(/CO1)[C@@]32O`, the MIC in the assay with Pseudomonas aeruginosa, in the assay on Vibrio anguillarum, with Vibrio vulnificus, with Vibrio alginolyticus, in the assay with Aeromonas hydrophila and in the assay on Vibrio parahaemolyticus was above 32 µg/mL throughout. Moreover, the MIC in the assay on Escherichia coli and in the assay with Edwardsiella tarda was above 32 µg/mL in each case.
For the molecule `CC(C)=C/C=C\[C@H](C)[C@H]1CC[C@]2(C)C[C@H]3[C@@H]4/C(=C\C[C@@H]12)CO[C@]4(O)C[C@@]3(C)O`, the MIC in the assay with Pseudomonas aeruginosa, with Vibrio anguillarum, in the assay with Vibrio vulnificus, with Vibrio alginolyticus, in the assay on Aeromonas hydrophila and with Vibrio parahaemolyticus was above 32 µg/mL throughout. Also, the MIC with Escherichia coli and with Edwardsiella tarda was above 32 µg/mL in each case.
With `CC(C)=CCC[C@H](C)[C@H]1CC[C@]2(C)C[C@@H]3C(C)=CC(=O)[C@H]3/C(CO)=C\C[C@@H]12`, the MIC in the assay on Pseudomonas aeruginosa, with Vibrio anguillarum, in the assay with Vibrio vulnificus, in the assay on Vibrio alginolyticus, with Aeromonas hydrophila and with Vibrio parahaemolyticus was above 32 µg/mL in each case. Also, the MIC in the assay on Escherichia coli and with Edwardsiella tarda was above 32 µg/mL throughout.
On to `CC(C)=C/C=C\[C@H](C)[C@H]1CC[C@]2(C)C[C@@H]3C(C)=CC(=O)[C@H]3/C(CO)=C\C[C@@H]12`, for which the MIC worked out at 8 µg/mL in the assay on Pseudomonas aeruginosa; 32 µg/mL in the assay with Vibrio anguillarum; 8 µg/mL with Vibrio vulnificus; 4 µg/mL in the assay with Vibrio alginolyticus; 8 µg/mL with Aeromonas hydrophila; 8 µg/mL with Vibrio parahaemolyticus. Moreover, the MIC with Escherichia coli came to 16 µg/mL; in the assay with Edwardsiella tarda, 8 µg/mL.
Take `COc1cc2c(c(O)c1OC/C=C(\C)CC/C=C(\C)CCCC(C)(C)OC(C)=O)COC2=O`: the MIC was 8 µg/mL with Pseudomonas aeruginosa; above 32 µg/mL in the assay on Vibrio anguillarum; 4 µg/mL in the assay with Vibrio vulnificus; 4 µg/mL in the assay with Vibrio alginolyticus; 8 µg/mL with Aeromonas hydrophila; 8 µg/mL with Vibrio parahaemolyticus. Further, the MIC with Escherichia coli is 32 µg/mL; with Edwardsiella tarda, 4 µg/mL.
As for `CC(C)=C/C=C\[C@H](C)[C@H]1CC[C@]2(C)C[C@@H]3C(C)=CC(=O)[C@H]3/C(C=O)=C\C[C@@H]12`, the MIC is 8 µg/mL in the assay with Pseudomonas aeruginosa; 32 µg/mL with Vibrio anguillarum; 8 µg/mL in the assay with Vibrio vulnificus; 4 µg/mL in the assay on Vibrio alginolyticus; 8 µg/mL in the assay on Aeromonas hydrophila; 8 µg/mL in the assay on Vibrio parahaemolyticus. The results for the MIC in the assay on Escherichia coli and in the assay on Edwardsiella tarda were 16 µg/mL and 8 µg/mL, respectively.
As for `COc1cc2c(c(O)c1OC/C=C(\C)CC/C=C(\C)CCCC(C)(C)O)COC2=O`, the MIC is 16 µg/mL with Pseudomonas aeruginosa; above 32 µg/mL with Vibrio anguillarum; 4 µg/mL in the assay on Vibrio vulnificus; 8 µg/mL in the assay with Vibrio alginolyticus; 16 µg/mL with Aeromonas hydrophila; 16 µg/mL with Vibrio parahaemolyticus. The MIC with Escherichia coli stood at 32 µg/mL; in the assay on Edwardsiella tarda, 8 µg/mL.
Turning to `CC(C)=CCC[C@H](C)[C@H]1CC[C@]2(C)C[C@H]3[C@@H]4/C(=C\C[C@@H]12)CO[C@]4(O)C[C@@]3(C)O`, the MIC with Pseudomonas aeruginosa, in the assay on Vibrio anguillarum, in the assay with Vibrio vulnificus, with Vibrio alginolyticus, in the assay on Aeromonas hydrophila and with Vibrio parahaemolyticus was above 32 µg/mL each time. The MIC in the assay with Escherichia coli and in the assay on Edwardsiella tarda was above 32 µg/mL throughout.
As to `COc1cc2c(c(O)c1OC/C=C(\C)CC/C=C(\C)CCC=C(C)C)COC2=O`, the MIC with Pseudomonas aeruginosa was 16 µg/mL; in the assay on Vibrio anguillarum, above 32 µg/mL; in the assay with Vibrio vulnificus, 4 µg/mL; in the assay on Vibrio alginolyticus, 4 µg/mL; with Aeromonas hydrophila, 8 µg/mL; in the assay on Vibrio parahaemolyticus, 16 µg/mL. Moreover, the MIC with Escherichia coli was found to be 32 µg/mL; in the assay with Edwardsiella tarda, 8 µg/mL.
As to `CC(C)=CCC[C@H](C)[C@H]1CC[C@]2(C)C[C@@H]3C(C)=CC(=O)[C@H]3/C(C=O)=C\C[C@@H]12`, the MIC in the assay with Pseudomonas aeruginosa, in the assay on Vibrio anguillarum, in the assay with Vibrio vulnificus, with Vibrio alginolyticus, in the assay with Aeromonas hydrophila and in the assay on Vibrio parahaemolyticus was above 32 µg/mL each time. Further, the MIC in the assay on Escherichia coli and in the assay with Edwardsiella tarda was above 32 µg/mL throughout.
As for `CC(C)=CCC[C@H](C)[C@H]1CC[C@]2(C)C[C@H]3[C@H]4/C(=C\C[C@@H]12)CO[C@@]4(O)C[C@@]3(C)O`, the MIC in the assay with Pseudomonas aeruginosa worked out at 8 µg/mL; in the assay with Vibrio anguillarum, 32 µg/mL; with Vibrio vulnificus it was 8 µg/mL; with Vibrio alginolyticus it was 4 µg/mL; in the assay with Aeromonas hydrophila, 4 µg/mL; in the assay with Vibrio parahaemolyticus, 4 µg/mL. Further, the MIC in the assay on Escherichia coli and with Edwardsiella tarda was 4 µg/mL in each case.
